Type in all cases: cell-based, murine
The subject of one assay is COX-2. Nature of the assay: COX-2 assay (cell membrane damage by RDT). As to conditions: CT26, 10 μM 4 h; for COX-2 mean fluorescence intensities (flow cytometry): with X-ray irradiation. On the procedure: Thus, the cell membrane damage caused by RDT upon X-ray irradiation was investigated by COX-2 assay (BD Bioscience, Franklin Lakes, New Jersey, United States of America) in CT26 cells. Cells were seeded on cover slides in 6-well plates and cultured for 12 h then incubated with Hf12-DBP, Hf12-DBP-Pt, H2DBP-Pt or PBS at a Hf concentration of 10 μM or ligand with concentration of 10 μM for 4 h followed by X-ray irradiation (250 kVp, 15 mA, mm Cu filter) at 0 and 2 Gy dose. Cells were fixed with 4% paraformaldehyde immediately after X-ray or light irradiation. Biotin-conjugated anti-COX-2 antibody with concentration of 10 μg/mL were incubated with cells at 4° C. overnight then followed by incubation with Cy3-conjugated streptavidin. The nuclei were stained with DAPI. […] The cells were imaged with CLSM and quantified by flow cytometry.
To further study the stronger RDT effect from the Hf12-DBP-Pt treated group, flow cytometry was performed to quantify the difference of COX-2 upregulation of cells treated with Hf12-DBP-Pt, Hf12-DBP, H2DBP-Pt or H2DBP. The mean fluorescence intensities were 7441, 1804, 821, and 225 for the t cells treated with Hf12-DBP-Pt, Hf12-DBP, H2DBP-Pt and H2DBP with X-ray irradiation, respectively.

The test system of assay [1] is CT26 cells. As to the kind of experiment: Annexin V/dead cell apoptosis kit, flow cytometry, CT26. To be noted: 48 h. On the procedure: (§1) The in vitro anticancer efficacy of Hf12-DBP and Hf12-DBP-Pt were further evaluated on CT26 and MC38 cells. Cells were cultured in a 6-well plate overnight and incubated with particles at a Hf concentration of 20 μM for 4 h followed by irradiation with 0 or 2 Gy X-ray (250 kVp, 15 mA, 1 mm Cu filter). 48 h later, the cells were stained according to the AlexaFluor 488 Annexin V/dead cell apoptosis kit (Life Technologies, Carlsbad, California United States of America) and quantified by flow cytometry.
The in vitro anticancer efficacy of POM, Hf6-QPDC-Ir, Hf12-QPDC-Ir and POM@Hf12-QPDC-Ir were evaluated on CT26 and MC38 cells. Cells were cultured in a 6-well plate overnight and incubated with particles at a Hf concentration of 20 μM or equivalent W concentration for 4 h followed by irradiation with 0 or 2 Gy X-ray (250 kVp, 15 mA, 1 mm Cu filter). 48 h later, the cells were stained according to the AlexaFluor 488 Annexin V/dead cell apoptosis kit (Life Technologies, Carlsbad, California, United States of America) and quantified by flow cytometry.
In general terms: In flow cytometry, cells or beads pass a laser one at a time.

Another assay deals with MC38 cells. As to the kind of experiment: Annexin V/dead cell apoptosis kit, flow cytometry, MC38. As to conditions: 48 h. On the procedure: as §1
The in vitro anticancer efficacy of POM, Hf6-QPDC-Ir, Hf12-QPDC-Ir and POM@Hf12-QPDC-Ir were evaluated on CT26 and MC38 cells. Cells were cultured in a 6-well plate overnight and incubated with particles at a Hf concentration of 20 μM or equivalent W concentration for 4 h followed by irradiation with 0 or 2 Gy X-ray (250 kVp, 15 mA, 1 mm Cu filter). 48 h later, the cells were stained according to the AlexaFluor 488 Annexin V/dead cell apoptosis kit (Life Technologies, Carlsbad, California, United States of America) and quantified by flow cytometry. […]

Assay [2] relates to CT26 cells. As to the kind of experiment: Intracellular singlet oxygen generation (SOSG, CLSM), Example 1. As to conditions: 20 μM based on Ir, Ru or BPY, 8 h, X-ray 2 Gy. On the procedure: ^1O2 generation in live cells was detected by Singlet Oxygen Sensor Green (SOSG, Life Technology, USA). CT26 cells were seeded in a 3.5-cm petri dish and cultured for 12 h. The culture medium was then replaced with fresh medium containing 1 μM SOSG to preload the cells with SOSG. After incubating for 30 min, the cells were washed by PBS three times to remove excess SOSG. The cells were incubated in PBS, with Hf-MOLs or ligands at a ligand concentration of 20 μM for 8 h, then washed with PBS three times to remove excess MOLs or ligands. X-ray irradiation was applied to cells at a dose of 2 Gy (250 kVp, 15 mA, 1-mm Cu filter). Confocal laser scanning microscopy (CLSM; FV1000 Laser Scanning Confocal Microscope, Olympus Corporation, Tokyo, Japan) was used to visualize the ^1O2 generated in the live cells by detecting the green fluorescence inside the cells.
The mechanism of X-ray induced cytotoxicity on CT26 cells was explored. ^1O2 generation in live cells was examined by Singlet Oxygen Sensor Green (SOSG) and detected by confocal laser scanning microscopy (CLSM). After preloading cells with SOSG and incubating them with PBS, Hf-MOLs, or H3BPY ligand for 8 h at a concentration of 20 μM based on Ir, Ru, or BPY, respectively, they were irradiated with X-rays at a dose of 2 Gy, immediately followed by CLSM imaging.

[3] abbreviates: Table 8, 0 Gy (dark), Hf 20 μM 4 h.
Where [4] appears, read: Table 8, 2 Gy X-ray, Hf 20 μM 4 h.
The mark [5] stands for this setting: Table 9, 0 Gy (dark), Hf 20 μM 4 h.
The mark [6] stands for this setting: Table 9, 2 Gy X-ray, Hf 20 μM 4 h.
[7] abbreviates: Table 10, 0 Gy (dark), Hf 20 μM or equivalent W 4 h.
Setting [8] is: Table 10, 2 Gy X-ray, Hf 20 μM or equivalent W 4 h.
Where [9] appears, read: Table 11, 0 Gy (dark), Hf 20 μM or equivalent W 4 h.
The mark [10] stands for this setting: Table 11, 2 Gy X-ray, Hf 20 μM or equivalent W 4 h.

Consider 4 compounds from patent US11826426B2, “Nanoscale metal-organic layers and metal-organic nanoplates for x-ray induced photodynamic therapy, radiotherapy, radiodynamic therapy, chemotherapy, immunotherapy, and any combination thereof” (priority 2017, dated 2023).

Consider `O=C(O)c1ccc(-c2c3nc(cc4ccc([nH]4)c(-c4ccc(C(=O)O)cc4)c4nc(cc5ccc2[nH]5)C=C4)C=C3)cc1` [H2DBP, 5,15-di(p-benzoato)porphyrin], for which the “COX-2 mean fluorescence intensities (flow cytometry)” value in the assay on COX-2 is recorded as 225.

Take `O=C(O)c1ccc(-c2c3nc(cc4ccc([n-]4)c(-c4ccc(C(=O)O)cc4)c4nc(cc5ccc2[n-]5)C=C4)C=C3)cc1.[Pt+2]` [H2DBP-Pt, platinum-complexed 5, 15-di(p-benzoato)porphyrin]: the Early apoptosis in the assay on CT26 cells [1] (setting [3]) came out at 0.66%; in the assay with CT26 cells [1] (setting [4]) it was 0.73%; with MC38 cells (setting [5]), 3.99%; in the assay with MC38 cells (setting [6]), 15.9%. For the same compound, the Healthy cells with CT26 cells [1] (setting [3]) was determined as 88.2%; in the assay on CT26 cells [1] (setting [4]), 69.3%; with MC38 cells (setting [5]), 93.9%; in the assay with MC38 cells (setting [6]) it was 78.2%. Besides, the Late apoptosis stood at 4.86% in the assay on CT26 cells [1] (setting [3]), 8.45% in the assay with CT26 cells [1] (setting [4]), 1.90% in the assay on MC38 cells (setting [5]) and 5.31% in the assay on MC38 cells (setting [6]). Besides, the Necrosis in the assay with CT26 cells [1] (setting [3]) was 6.26%; in the assay with CT26 cells [1] (setting [4]) it was 21.5%; in the assay on MC38 cells (setting [5]), 3.18%; in the assay with MC38 cells (setting [6]), 0.55%. Also, in the assay with COX-2, the “COX-2 mean fluorescence intensities (flow cytometry)” value is reported as 821. In addition, the “COX-2 upregulation by CLSM” value in the assay with COX-2 (with X-ray irradiation (2 Gy)) and in the assay on COX-2 (without X-ray irradiation) was “No fluorescence signal” in each case.

As to `O=C(O)c1ccc(-c2cc(-c3ccc(C(=O)O)cc3)nc(-c3cc(C(=O)O)ccn3)c2)cc1` [H3BPY, 4′,6′-dibenzoato-[2,2′-bipyridine]-4-carboxylic acid], in the assay with CT26 cells [2], the “SOSG fluorescence (^1O2 in live cells)” value is on record as “no SOSG signal”.

On to [P2W18O62]^6− [POM, reference compound], for which, in the assay with CT26 cells [1] (setting [7]), the Early apoptosis is recorded as 0.051%, the Healthy cells is on record as 99.7%, the Late apoptosis was 0.0057% and the Necrosis stood at 0.21%. Besides, in the assay on CT26 cells [1] (setting [8]), the Early apoptosis worked out at 5.71%, the Healthy cells was found to be 83.1%, the Late apoptosis came to 8.14% and the Necrosis turned out to be 3.05%. Besides, in the assay on MC38 cells (setting [9]), the Early apoptosis was 0.44%, the Healthy cells came out at 97.3%, the Late apoptosis is 0.86% and the Necrosis was 1.53%. In the assay on MC38 cells (setting [10]), the Early apoptosis is given as 2.35%, the Healthy cells amounted to 70.9%, the Late apoptosis turned out to be 14.0% and the Necrosis was determined as 12.7%.
